This is an account of results in ChEMBL document CHEMBL6182876, “Design, synthesis and preliminary structure-activity relationship of 2-iminothiazolidine-4-one derivatives against Schistosoma japonicum in vitro and in vivo” (Eur J Med Chem, 2025).

The test system of test [1] is Schistosoma japonicum. Put plainly: Anti-schistosomal activity against adult Schistosoma japonicum assessed as worm mortality at 100 uM measured at 24 hrs relative to control. The test is classed as functional.
Test [2] relates to Schistosoma japonicum. Put plainly: Anti-schistosomal activity against adult Schistosoma japonicum assessed as worm mortality at 100 uM measured at 72 hrs relative to control. The test is classed as functional.
The subject of test [3] is Schistosoma japonicum. Put plainly: Anti-schistosomal activity against adult Schistosoma japonicum assessed as worm mortality at 100 uM measured at 12 hrs relative to control. The test is classed as functional.
Test [4] has as its system Schistosoma japonicum. Put plainly: Anti-schistosomal activity against adult Schistosoma japonicum assessed as worm mortality at 100 uM measured at 4 hrs relative to control. The test is classed as functional.
Test [5] relates to Schistosoma japonicum. Put plainly: Anti-schistosomal activity against adult Schistosoma japonicum assessed as worm mortality at 100 uM measured at 48 hrs relative to control. Format: functional.
Test [6] deals with Schistosoma japonicum. Put plainly: Anti-schistosomal activity against adult Schistosoma japonicum measured at 72 hrs. Format: functional, organism-based.
For test [7], the system named is Schistosoma japonicum. The test can be described thus: Anti-schistosomal activity against adult Schistosoma japonicum assessed as worm mortality at 100 uM measured at 8 hrs relative to control. Format: functional.

Structures are written as SMILES.

`CCOC(=O)/C=C1\S/C(=N\c2cc(F)ccc2F)N(CCCN2CCN(C)CC2)C1=O`: the mortality (commonly the percentage killed) at 100 µM in the test with Schistosoma japonicum [1] turned out to be 30%; in the test with Schistosoma japonicum [2] it was 100%; with Schistosoma japonicum [3], 0%; in the test with Schistosoma japonicum [4], 0%; with Schistosoma japonicum [5], 100%; with Schistosoma japonicum [7], 0%. Half-maximal inhibition in the test with Schistosoma japonicum [6] (IC50) was put at 31.2 µM.

On to `CCOC(=O)/C=C1\S/C(=N\c2ccccc2)N(CCCN2CCN(C)CC2)C1=O`, for which the mortality at 100 µM came out at 10% with Schistosoma japonicum [1]; 100% with Schistosoma japonicum [2]; 0% in the test on Schistosoma japonicum [3]; 0% in the test on Schistosoma japonicum [4]; 100% in the test with Schistosoma japonicum [5]; 0% in the test with Schistosoma japonicum [7]. For the same compound, in the test on Schistosoma japonicum [6], the IC50 (usually the concentration at which inhibition is half-maximal) is 75.6 µM.

`CCOC(=O)/C=C1\S/C(=N\c2ccccc2)N(CCN(CC)CC)C1=O`: the mortality at 100 µM in the test on Schistosoma japonicum [1] is 10%; in the test with Schistosoma japonicum [2] it was 30%; in the test with Schistosoma japonicum [3] it was 0%; in the test with Schistosoma japonicum [4], 0%; with Schistosoma japonicum [5], 10%; with Schistosoma japonicum [7], 0%. The IC50 with Schistosoma japonicum [6] is over 100 µM.

`Cc1cc(/C=C2\S/C(=N\c3ccc(C(F)(F)F)cc3)N(CCCN3CCN(C)CC3)C2=O)ccc1F`: the mortality at 100 µM amounted to 10% in the test with Schistosoma japonicum [1]; 30% with Schistosoma japonicum [2]; 0% in the test with Schistosoma japonicum [3]; 0% with Schistosoma japonicum [4]; 20% with Schistosoma japonicum [5]; 0% in the test with Schistosoma japonicum [7].

For `Cc1ccccc1/C=C1\S/C(=N\c2ccc(C(F)(F)F)cc2)N(CCCN2CCN(C)CC2)C1=O`, the mortality at 100 µM in the test with Schistosoma japonicum [1] came to 0%; in the test with Schistosoma japonicum [2], 30%; in the test with Schistosoma japonicum [3] it was 0%; in the test with Schistosoma japonicum [4], 0%; in the test on Schistosoma japonicum [5] it was 10%; with Schistosoma japonicum [7], 0%.

As to `CCOC(=O)/C=C1\S/C(=N\c2ccccc2)N(CCCN2CCCC2)C1=O`, the mortality at 100 µM in the test on Schistosoma japonicum [1] is 20%; in the test on Schistosoma japonicum [2], 100%; in the test on Schistosoma japonicum [3], 0%; in the test with Schistosoma japonicum [4], 0%; with Schistosoma japonicum [5], 30%; in the test on Schistosoma japonicum [7], 0%. This compound also returned a concentration for half-maximal inhibition (IC50) in the test on Schistosoma japonicum [6] of 77.9 µM.

As to `COc1ccccc1/C=C1\S/C(=N\c2ccc(C(F)(F)F)cc2)N(CCCN2CCN(C)CC2)C1=O`, the mortality at 100 µM in the test with Schistosoma japonicum [1] was 0%; in the test with Schistosoma japonicum [2], 70%; with Schistosoma japonicum [3], 0%; in the test on Schistosoma japonicum [4], 0%; with Schistosoma japonicum [5] it was 10%; in the test with Schistosoma japonicum [7], 0%.

Take `CCOC(=O)/C=C1\S/C(=N\c2ccccc2C(F)(F)F)N(CCCN2CCN(C)CC2)C1=O`: the mortality at 100 µM with Schistosoma japonicum [1] was 100%; in the test with Schistosoma japonicum [2], 100%; with Schistosoma japonicum [3], 100%; in the test with Schistosoma japonicum [4], 0%; in the test on Schistosoma japonicum [5], 100%; in the test on Schistosoma japonicum [7], 40%. The IC50 in the test with Schistosoma japonicum [6] is 33.2 µM.

Consider `CCOC(=O)/C=C1\S/C(=N\c2cccc(Cl)c2)N(CCCN2CCN(C)CC2)C1=O`, for which the mortality at 100 µM is 100% in the test on Schistosoma japonicum [1]; 100% in the test with Schistosoma japonicum [2]; 100% in the test with Schistosoma japonicum [3]; 10% in the test with Schistosoma japonicum [4]; 100% in the test with Schistosoma japonicum [5]; 30% in the test on Schistosoma japonicum [7]. In the test with Schistosoma japonicum [6], the IC50 was 41.2 µM.

For `CCOC(=O)/C=C1\S/C(=N\c2ccccc2)N(CCN2CCC(Cc3ccccc3)CC2)C1=O`, the mortality at 100 µM in the test on Schistosoma japonicum [1] was 0%; with Schistosoma japonicum [2] it was 70%; in the test with Schistosoma japonicum [3] it was 0%; in the test on Schistosoma japonicum [4], 0%; with Schistosoma japonicum [5], 20%; with Schistosoma japonicum [7], 0%. In the test on Schistosoma japonicum [6], this compound registered an IC50 of 91.3 µM.

For `CCOC(=O)/C=C1\S/C(=N\c2ccc([N+](=O)[O-])cc2)N(CCCN2CCN(C)CC2)C1=O`, the mortality at 100 µM in the test with Schistosoma japonicum [1] was determined as 10%; with Schistosoma japonicum [2], 100%; in the test with Schistosoma japonicum [3] it was 0%; in the test on Schistosoma japonicum [4], 0%; in the test with Schistosoma japonicum [5] it was 100%; in the test on Schistosoma japonicum [7], 0%. For the same compound, the IC50 in the test on Schistosoma japonicum [6] is 72 µM.

For the compound `CCOC(=O)/C=C1\S/C(=N\c2ccccc2)N(CCN2CCCC2)C1=O`, the mortality at 100 µM with Schistosoma japonicum [1] was 0%; with Schistosoma japonicum [2] it was 50%; in the test with Schistosoma japonicum [3], 0%; in the test on Schistosoma japonicum [4] it was 0%; in the test with Schistosoma japonicum [5], 50%; in the test on Schistosoma japonicum [7], 0%. In the test with Schistosoma japonicum [6], this compound gave a concentration for half-maximal inhibition (IC50) of over 100 µM.

With `CCOC(=O)/C=C1\S/C(=N\c2ccc(OC)cc2)N(CCCN2CCN(C)CC2)C1=O`, the mortality at 100 µM in the test with Schistosoma japonicum [1] stood at 0%; in the test on Schistosoma japonicum [2], 30%; in the test with Schistosoma japonicum [3], 0%; in the test on Schistosoma japonicum [4], 0%; in the test on Schistosoma japonicum [5] it was 10%; with Schistosoma japonicum [7], 0%. Moreover, the half-maximal inhibitory concentration (IC50) in the test with Schistosoma japonicum [6] amounted to 95.7 µM.

Turning to `CN1CCN(CCCN2C(=O)/C(=C/c3cccc(F)c3)S/C2=N\c2ccc(C(F)(F)F)cc2)CC1`, the mortality at 100 µM in the test on Schistosoma japonicum [1] came to 0%; with Schistosoma japonicum [2] it was 30%; with Schistosoma japonicum [3], 0%; in the test on Schistosoma japonicum [4], 0%; in the test on Schistosoma japonicum [5] it was 30%; in the test on Schistosoma japonicum [7], 0%.

Turning to `COc1cccc(/C=C2\S/C(=N\c3ccc(C(F)(F)F)cc3)N(CCCN3CCN(C)CC3)C2=O)c1`, the mortality at 100 µM with Schistosoma japonicum [1] was found to be 70%; in the test with Schistosoma japonicum [2], 100%; in the test on Schistosoma japonicum [3], 20%; in the test with Schistosoma japonicum [4], 0%; with Schistosoma japonicum [5] it was 100%; with Schistosoma japonicum [7], 0%.

For the compound `CN1CCN(CCCN2C(=O)/C(=C/c3ccccc3Cl)S/C2=N\c2ccc(C(F)(F)F)cc2)CC1`, the mortality at 100 µM in the test with Schistosoma japonicum [1] came to 0%; in the test with Schistosoma japonicum [2], 40%; in the test with Schistosoma japonicum [3] it was 0%; with Schistosoma japonicum [4], 0%; in the test on Schistosoma japonicum [5], 0%; with Schistosoma japonicum [7], 0%.

As to `CN1CCN(CCCN2C(=O)/C(=C/c3ccccc3)S/C2=N\c2ccc(C(F)(F)F)cc2)CC1`, the mortality at 100 µM with Schistosoma japonicum [1] came to 10%; in the test on Schistosoma japonicum [2], 30%; in the test with Schistosoma japonicum [3], 0%; with Schistosoma japonicum [4] it was 0%; with Schistosoma japonicum [5], 20%; in the test on Schistosoma japonicum [7], 0%.

Consider `CN1CCN(CCCN2C(=O)/C(=C/c3ccc([N+](=O)[O-])cc3)S/C2=N\c2ccc(C(F)(F)F)cc2)CC1`, for which the mortality at 100 µM is 0% with Schistosoma japonicum [1]; 70% in the test with Schistosoma japonicum [2]; 0% in the test on Schistosoma japonicum [3]; 0% in the test with Schistosoma japonicum [4]; 30% in the test on Schistosoma japonicum [5]; 0% in the test on Schistosoma japonicum [7].

`COc1ccc(/C=C2\S/C(=N\c3ccc(C(F)(F)F)cc3)N(CCCN3CCN(C)CC3)C2=O)cc1`: the mortality at 100 µM in the test with Schistosoma japonicum [1] is 0%; in the test on Schistosoma japonicum [2], 60%; with Schistosoma japonicum [3] it was 0%; in the test on Schistosoma japonicum [4], 0%; in the test with Schistosoma japonicum [5], 20%; in the test on Schistosoma japonicum [7], 0%.

As for `CN1CCN(CCCN2C(=O)/C(=C/c3ccc(Cl)cc3)S/C2=N\c2ccc(C(F)(F)F)cc2)CC1`, the mortality at 100 µM worked out at 100% in the test on Schistosoma japonicum [1]; 100% in the test with Schistosoma japonicum [2]; 0% with Schistosoma japonicum [3]; 0% in the test on Schistosoma japonicum [4]; 100% with Schistosoma japonicum [5]; 0% in the test with Schistosoma japonicum [7].

Regarding `Cc1ccc(/C=C2\S/C(=N\c3ccc(C(F)(F)F)cc3)N(CCCN3CCN(C)CC3)C2=O)cc1`, the mortality at 100 µM was 30% with Schistosoma japonicum [1]; 100% in the test on Schistosoma japonicum [2]; 0% in the test with Schistosoma japonicum [3]; 0% in the test on Schistosoma japonicum [4]; 70% in the test on Schistosoma japonicum [5]; 0% in the test on Schistosoma japonicum [7].

Consider `CN1CCN(CCCN2C(=O)/C(=C/c3cccc(Cl)c3)S/C2=N\c2ccc(C(F)(F)F)cc2)CC1`, for which the mortality at 100 µM in the test with Schistosoma japonicum [1] was 100%; in the test with Schistosoma japonicum [2], 100%; in the test with Schistosoma japonicum [3] it was 70%; in the test with Schistosoma japonicum [4], 20%; with Schistosoma japonicum [5], 100%; with Schistosoma japonicum [7] it was 40%.

Regarding `Cc1cccc(/C=C2\S/C(=N\c3ccc(C(F)(F)F)cc3)N(CCCN3CCN(C)CC3)C2=O)c1`, the mortality at 100 µM with Schistosoma japonicum [1] was found to be 20%; with Schistosoma japonicum [2], 100%; with Schistosoma japonicum [3], 0%; with Schistosoma japonicum [4], 0%; in the test with Schistosoma japonicum [5] it was 90%; in the test with Schistosoma japonicum [7] it was 0%.

For `CCOC(=O)/C=C1\S/C(=N\c2ccc(CC)cc2)N(CCCN2CCN(C)CC2)C1=O`, the mortality at 100 µM in the test with Schistosoma japonicum [1] worked out at 60%; in the test on Schistosoma japonicum [2] it was 100%; in the test on Schistosoma japonicum [3] it was 10%; in the test on Schistosoma japonicum [4], 0%; in the test on Schistosoma japonicum [5], 100%; with Schistosoma japonicum [7] it was 0%.

In the case of `CN1CCN(CCCN2C(=O)/C(=C/c3ccccc3F)S/C2=N\c2ccc(C(F)(F)F)cc2)CC1`, the mortality at 100 µM stood at 0% with Schistosoma japonicum [1]; 20% with Schistosoma japonicum [2]; 0% in the test with Schistosoma japonicum [3]; 0% in the test on Schistosoma japonicum [4]; 0% in the test with Schistosoma japonicum [5]; 0% with Schistosoma japonicum [7].

In the case of `CN1CCN(CCCN2C(=O)CS/C2=N\c2ccc(C(F)(F)F)cc2)CC1`, the mortality at 100 µM came to 0% in the test with Schistosoma japonicum [1]; 10% with Schistosoma japonicum [2]; 0% in the test with Schistosoma japonicum [3]; 0% with Schistosoma japonicum [4]; 0% in the test on Schistosoma japonicum [5]; 0% with Schistosoma japonicum [7].
